Measured values taken from PubChem BioAssay (NCI).
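Growth conditions: 96-well plates. Treatment: test compound, 48 hours, 5 concentrations. Analysis: linear interpolation between bracketing concentrations; unreached endpoints set to highest concentration. At the TGI there is no net growth.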

What was measured:
Test in all cases: NCI tumour cell line growth inhibition, 48 h
[1] = tested on: HL-60(TB) leukemia
[2] = tested on: M14 melanoma
[3] = tested on: HT29 colon
[4] = tested on: LOX IMVI melanoma
[5] = tested on: HCT-116 colon
[6] = tested on: K-562 leukemia
[7] = tested on: 786-0 renal
[8] = tested on: MDA-MB-231 breast
[9] = tested on: NCI-H460 lung
[10] = tested on: U251 CNS
[11] = tested on: SR leukemia
[12] = tested on: TK-10 renal
[13] = tested on: BT-549 breast
[14] = tested on: A498 renal
[15] = tested on: HOP-92 NSCLC
[16] = tested on: RPMI-8226 leukemia
[17] = tested on: SF-295 CNS
[18] = tested on: SNB-19 CNS
[19] = tested on: OVCAR-5 ovarian
[20] = tested on: SK-OV-3 ovarian
[21] = tested on: MOLT-4 leukemia
[22] = tested on: HCT-15 colon
[23] = tested on: NCI-H23 lung
[24] = tested on: SN12C renal
[25] = tested on: CAKI-1 renal
[26] = tested on: SK-MEL-5 melanoma
[27] = tested on: MALME-3M melanoma
[28] = tested on: IGROV1 ovarian
[29] = tested on: UO-31 renal
[30] = tested on: DU-145 prostate
[31] = tested on: SK-MEL-28 melanoma
[32] = tested on: MDA-N
[33] = tested on: KM12 colon
[34] = tested on: EKVX NSCLC
[35] = tested on: CCRF-CEM leukemia
[36] = tested on: OVCAR-3 ovarian
[37] = tested on: MDA-MB-435
[38] = tested on: MCF7 breast
[39] = tested on: SF-539 CNS
[40] = tested on: SF-268 CNS
[41] = tested on: COLO 205 colon
[42] = tested on: PC-3 prostate
[43] = tested on: NCI-H522 lung
[44] = tested on: UACC-62 melanoma
[45] = tested on: SNB-75 CNS
[46] = tested on: ACHN renal
[47] = tested on: A549 NSCLC
[48] = tested on: OVCAR-4 ovarian
[49] = tested on: OVCAR-8 ovarian
[50] = tested on: HOP-62 NSCLC
[51] = tested on: HS 578T breast
[52] = tested on: T-47D breast
[53] = tested on: HCC-2998 colon
[54] = tested on: SW-620 colon
[55] = tested on: NCI/ADR-RES ovarian
[56] = tested on: SK-MEL-2 melanoma
[57] = tested on: NCI-H226 lung
[58] = tested on: UACC-257 melanoma
[59] = tested on: RXF 393 renal

## COc1ccc(/C=c2\s/c(=C3/SC(=S)N(c4ccccc4)C3=O)n(-c3ccccc3)c2=O)cc1
[1]
  TGI: > 100 µM
[2]
  TGI: > 100 µM
[3]
  TGI: > 100 µM
[4]
  TGI: > 100 µM
[5]
  TGI: > 100 µM
[6]
  TGI: > 100 µM
[7]
  TGI: > 100 µM
[8]
  TGI: > 100 µM
[9]
  TGI: > 100 µM
[10]
  TGI: > 100 µM
[11]
  TGI: 31.8 µM
[12]
  TGI: 59.2 µM
[13]
  TGI: > 100 µM
[14]
  TGI: > 100 µM
[15]
  TGI: > 100 µM
[16]
  TGI: > 100 µM
[17]
  TGI: > 100 µM
[18]
  TGI: > 100 µM
[19]
  TGI: > 100 µM
[20]
  TGI: 45 µM
[21]
  TGI: 72.8 µM
[22]
  TGI: > 100 µM
[23]
  TGI: > 100 µM
[24]
  TGI: > 100 µM
[25]
  TGI: > 100 µM
[26]
  TGI: > 100 µM
[27]
  TGI: > 100 µM
[28]
  TGI: 75.9 µM
[29]
  TGI: > 100 µM
[30]
  TGI: > 100 µM
[31]
  TGI: > 100 µM
[32]
  TGI: > 100 µM
[33]
  TGI: > 100 µM
[34]
  TGI: > 100 µM
[35]
  TGI: 77.4 µM
[36]
  TGI: > 100 µM
[37]
  TGI: > 100 µM
[38]
  TGI: > 100 µM
[39]
  TGI: > 100 µM
[40]
  TGI: 26.9 µM
[41]
  TGI: > 100 µM
[42]
  TGI: > 100 µM
[43]
  TGI: > 100 µM
[44]
  TGI: > 100 µM
[45]
  TGI: 21.4 µM
[46]
  TGI: 28.8 µM
[47]
  TGI: > 100 µM
[48]
  TGI: > 100 µM
[49]
  TGI: > 100 µM
[50]
  TGI: 69.9 µM
[51]
  TGI: 74 µM
[52]
  TGI: > 100 µM
[53]
  TGI: > 100 µM
[54]
  TGI: > 100 µM
[55]
  TGI: > 100 µM

## CCN(CC)C(=S)Oc1cc2oc(=O)cc(C)c2cc1Cl
[1]
  TGI: > 100 µM
[2]
  TGI: > 100 µM
[3]
  TGI: > 100 µM
[4]
  TGI: > 100 µM
[5]
  TGI: > 100 µM
[56]
  TGI: > 100 µM
[6]
  TGI: > 100 µM
[7]
  TGI: > 100 µM
[8]
  TGI: > 100 µM
[9]
  TGI: > 100 µM
[10]
  TGI: > 100 µM
[11]
  TGI: > 100 µM
[12]
  TGI: > 100 µM
[13]
  TGI: > 100 µM
[14]
  TGI: > 100 µM
[15]
  TGI: > 100 µM
[16]
  TGI: > 100 µM
[17]
  TGI: > 100 µM
[18]
  TGI: > 100 µM
[19]
  TGI: > 100 µM
[57]
  TGI: > 100 µM
[21]
  TGI: > 100 µM
[22]
  TGI: > 100 µM
[23]
  TGI: > 100 µM
[24]
  TGI: > 100 µM
[25]
  TGI: > 100 µM
[26]
  TGI: > 100 µM
[28]
  TGI: > 100 µM
[29]
  TGI: > 100 µM
[30]
  TGI: > 100 µM
[31]
  TGI: > 100 µM
[32]
  TGI: > 100 µM
[33]
  TGI: > 100 µM
[34]
  TGI: > 100 µM
[35]
  TGI: > 100 µM
[36]
  TGI: > 100 µM
[37]
  TGI: > 100 µM
[38]
  TGI: > 100 µM
[39]
  TGI: > 100 µM
[40]
  TGI: > 100 µM
[41]
  TGI: > 100 µM
[42]
  TGI: > 100 µM
[43]
  TGI: > 100 µM
[58]
  TGI: > 100 µM
[44]
  TGI: 73.7 µM
[59]
  TGI: > 100 µM
[46]
  TGI: > 100 µM
[47]
  TGI: > 100 µM
[48]
  TGI: > 100 µM
[49]
  TGI: > 100 µM
[50]
  TGI: > 100 µM
[51]
  TGI: > 100 µM
[52]
  TGI: > 100 µM
[53]
  TGI: > 100 µM
[54]
  TGI: > 100 µM
[55]
  TGI: > 100 µM

## CC1(C)OCC2OC3([C@@H]4OC(C)(C)O[C@H]4CO)OC(C)(C)OC3C2O1 (some centres not stated)
[2]
  TGI: > 100 µM
[4]
  TGI: > 100 µM
[5]
  TGI: > 100 µM
[56]
  TGI: > 100 µM
[6]
  TGI: > 100 µM
[7]
  TGI: > 100 µM
[8]
  TGI: > 100 µM
[9]
  TGI: > 100 µM
[10]
  TGI: > 100 µM
[11]
  TGI: > 100 µM
[13]
  TGI: > 100 µM
[14]
  TGI: > 100 µM
[15]
  TGI: > 100 µM
[16]
  TGI: > 100 µM
[17]
  TGI: > 100 µM
[18]
  TGI: > 100 µM
[19]
  TGI: > 100 µM
[57]
  TGI: > 100 µM
[21]
  TGI: > 100 µM
[22]
  TGI: > 100 µM
[23]
  TGI: > 100 µM
[24]
  TGI: > 100 µM
[25]
  TGI: > 100 µM
[26]
  TGI: > 100 µM
[28]
  TGI: > 100 µM
[29]
  TGI: > 100 µM
[30]
  TGI: > 100 µM
[31]
  TGI: > 100 µM
[32]
  TGI: > 100 µM
[33]
  TGI: > 100 µM
[34]
  TGI: > 100 µM
[35]
  TGI: > 100 µM
[36]
  TGI: > 100 µM
[37]
  TGI: > 100 µM
[38]
  TGI: > 100 µM
[39]
  TGI: > 100 µM
[41]
  TGI: > 100 µM
[42]
  TGI: > 100 µM
[58]
  TGI: > 100 µM
[44]
  TGI: > 100 µM
[59]
  TGI: > 100 µM
[45]
  TGI: > 100 µM
[46]
  TGI: > 100 µM
[47]
  TGI: > 100 µM
[48]
  TGI: > 100 µM
[49]
  TGI: > 100 µM
[50]
  TGI: > 100 µM
[52]
  TGI: > 100 µM
[53]
  TGI: > 100 µM
[54]
  TGI: > 100 µM
[55]
  TGI: > 100 µM

## Cc1c(CN2CCN(C)CC2)c(CN2CCN(C)CC2)c(C)n1-c1ccc(Cl)cc1
[2]
  TGI: 32 µM
[3]
  TGI: 42.7 µM
[5]
  TGI: > 100 µM
[56]
  TGI: 46.2 µM
[6]
  TGI: > 100 µM
[7]
  TGI: 46.4 µM
[8]
  TGI: > 100 µM
[9]
  TGI: > 100 µM
[10]
  TGI: > 100 µM
[11]
  TGI: 40.8 µM
[12]
  TGI: 47.8 µM
[13]
  TGI: > 100 µM
[14]
  TGI: 51.2 µM
[16]
  TGI: > 100 µM
[17]
  TGI: 48.9 µM
[18]
  TGI: > 100 µM
[19]
  TGI: > 100 µM
[57]
  TGI: > 100 µM
[20]
  TGI: > 100 µM
[21]
  TGI: 82.8 µM
[22]
  TGI: > 100 µM
[23]
  TGI: > 100 µM
[24]
  TGI: > 100 µM
[25]
  TGI: 59.9 µM
[26]
  TGI: 31.7 µM
[27]
  TGI: 37.5 µM
[28]
  TGI: > 100 µM
[29]
  TGI: 87.9 µM
[30]
  TGI: > 100 µM
[31]
  TGI: 39.2 µM
[32]
  TGI: 58.5 µM
[33]
  TGI: > 100 µM
[34]
  TGI: > 100 µM
[35]
  TGI: 46.8 µM
[36]
  TGI: > 100 µM
[37]
  TGI: 62.7 µM
[38]
  TGI: > 100 µM
[40]
  TGI: > 100 µM
[41]
  TGI: 55.5 µM
[42]
  TGI: > 100 µM
[43]
  TGI: 40.8 µM
[58]
  TGI: 29.1 µM
[44]
  TGI: 33.9 µM
[59]
  TGI: > 100 µM
[45]
  TGI: 88.4 µM
[46]
  TGI: > 100 µM
[47]
  TGI: 91.1 µM
[48]
  TGI: > 100 µM
[49]
  TGI: 51.6 µM
[50]
  TGI: > 100 µM
[51]
  TGI: 70.6 µM
[52]
  TGI: 46.4 µM
[53]
  TGI: > 100 µM
[54]
  TGI: > 100 µM
[55]
  TGI: > 100 µM
